Test results published in article PMC7419507, “In vitro Cas9-assisted editing of modular polyketide synthase genes to produce desired natural product derivatives” (Nature Communications, 2020).
Where “and” joins values, the source holds several entries; their conditions need not be identical. Identical values can stand only once.

Legend:
FKBP12 and mTOR = target: T1, FKBP12 and mTOR (Homo sapiens, UniProt P42345+P62942); assay: Fluoppi analysis: induction of FKBP12-mTOR complex formation in transfected HeLa cells; assay type: cell-based; conditions: for Foci intensity: raw data, one replicate per line
T1 construct: host or cells: HeLa cells
Procedure, shortened: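 HeLa cells co-transfected with phAG-mTOR and pAsh-FKBP12, seeded 3000 cells/well, then compound-treated 1 h after 24 h at 37 °C. Fixed, Hoechst-stained, imaged by high-content microscopy; foci fluorescence normalized to total cell fluorescence, EC50 computed.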

T lymphoma Jurkat cells = assay: Cytotoxicity assay (CellTiter-Glo, 72 h), Jurkat; assay type: cell-based; conditions: raw data (replicates)
Procedure, shortened: (§1)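 1000 cells/well; 4 h settle, then 2-fold serial dilutions (0.5% DMSO final), 72 h, 37 °C/5% CO2. Read-out: CellTiter-Glo luminescence. Media: RPMI1640 + 10% FBS (Jurkat, MESO-1; Jurkat also Glutamax), DMEM + 10% FBS (SKOV-3).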

[1] = Cytotoxicity assay (CellTiter-Glo, 72 h), Jurkat; assay type: cell-based; conditions: human, Jurkat cells (T lymphoma), raw data (replicates)
Procedure, shortened: as §1

[2] = tested on: human ovarian adenocarcinoma SKOV-3 cells; assay: Cytotoxicity assay (CellTiter-Glo, 72 h), SKOV-3; assay type: cell-based; conditions: raw replicate data
Procedure, shortened: as §1

[3] = Cytotoxicity assay (CellTiter-Glo, 72 h), SKOV-3; assay type: cell-based, human; conditions: human, raw replicate data, read-out: SKOV3 viability (%)
Procedure, shortened: as §1

T1 sequence (P42345 2025-2114 limits assumed): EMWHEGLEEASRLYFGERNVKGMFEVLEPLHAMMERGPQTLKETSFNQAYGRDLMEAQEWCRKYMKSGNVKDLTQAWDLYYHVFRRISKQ
T1 sequence (P62942 whole entry): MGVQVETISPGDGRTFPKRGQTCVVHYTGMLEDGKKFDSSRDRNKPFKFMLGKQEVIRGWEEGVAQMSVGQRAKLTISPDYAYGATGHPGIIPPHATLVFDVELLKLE

CO[C@@H]1/C=C/C=C/[C@@H](C)C[C@@H](C)C(=O)C[C@H](O)/C(C)=C/[C@@H](C)C(=O)C[C@@H]([C@H](C)C[C@@H]2CC[C@@H](O)[C@H](OC)C2)OC(=O)[C@@H]2CCCCN2C(=O)C(=O)[C@]2(O)O[C@@H](CC[C@H]2C)C1 [Compound 9]
PPI-inducing (binding enhancing) activity between FKBP12 and mTOR compared with rapamycin (1), in words (FKBP12 and mTOR; Fluoppi): relatively weaker activities
EC50 (FKBP12 and mTOR; Fluoppi, HeLa cells, 1 h treatment, three independent biological replicates, read-out: EC50, induction of the formation of FKBP-mTOR complex): 34 nM
Foci intensity (FKBP12 and mTOR; conc 9.53674e-5 uM): 0.01796 and 0.01734 and 0.0265
Foci intensity (FKBP12 and mTOR; conc 0.000190735 uM): 0.007038 and 0.008763 and 0.03506
Foci intensity (FKBP12 and mTOR; conc 0.00038147 uM): 0.01287 and 0.02231 and 0.02044
Foci intensity (FKBP12 and mTOR; conc 0.000762939 uM): 0.01526 and 0.03513 and 0.01148
Foci intensity (FKBP12 and mTOR; conc 0.00152588 uM): 0.01977 and 0.009687 and 0.01946
Foci intensity (FKBP12 and mTOR; conc 0.00305176 uM): 0.01393 and 0.02436 and 0.01751
Foci intensity (FKBP12 and mTOR; conc 0.00610352 uM): 0.02196 and 0.02086 and 0.01607
Foci intensity (FKBP12 and mTOR; conc 0.012207 uM): 0.03665 and 0.02818 and 0.0403
Foci intensity (FKBP12 and mTOR; conc 0.0244141 uM): 0.1568 and 0.166 and 0.1355
Foci intensity (FKBP12 and mTOR; conc 0.0488281 uM): 0.2266 and 0.245 and 0.2523
Foci intensity (FKBP12 and mTOR; conc 0.0976562 uM): 0.282 and 0.2404 and 0.219
Foci intensity (FKBP12 and mTOR; conc 0.195312 uM): 0.2721 and 0.2692 and 0.2013
Foci intensity (FKBP12 and mTOR; conc 0.390625 uM): 0.3169 and 0.313 and 0.309
Foci intensity (FKBP12 and mTOR; conc 0.78125 uM): 0.3134 and 0.2906 and 0.2987
Foci intensity (FKBP12 and mTOR; conc 1.5625 uM): 0.3134 and 0.3737 and 0.3166
Foci intensity (FKBP12 and mTOR; conc 3.125 uM): 0.3491 and 0.3731 and 0.3792
Foci intensity (FKBP12 and mTOR; conc 6.25 uM): 0.279 and 0.3226 and 0.3138
Foci intensity (FKBP12 and mTOR; conc 12.5 uM): 0.3645 and 0.3352 and 0.3161
Foci intensity (FKBP12 and mTOR; conc 25 uM): 0.2867 and 0.3845 and 0.2898
Foci intensity (FKBP12 and mTOR; conc 50 uM): 0.3496 and 0.3134 and 0.3176
Jurkat viability (%) (T lymphoma Jurkat cells; conc 9.53674e-5 uM): 97.9% and 103.8%
Jurkat viability (%) (T lymphoma Jurkat cells; conc 0.000190735 uM): 101.0% and 98.6%
Jurkat viability (%) (T lymphoma Jurkat cells; conc 0.00038147 uM): 107.1% and 103.4%
Jurkat viability (%) (T lymphoma Jurkat cells; conc 0.000762939 uM): 103.5% and 104.2%
Jurkat viability (%) (T lymphoma Jurkat cells; conc 0.00152588 uM): 104.2% and 102.7%
Jurkat viability (%) (T lymphoma Jurkat cells; conc 0.00305176 uM): 97.4% and 96.9%
Jurkat viability (%) (T lymphoma Jurkat cells; conc 0.00610352 uM): 101.3% and 103.8%
Jurkat viability (%) (T lymphoma Jurkat cells; conc 0.012207 uM): 97.2% and 97.8%
Jurkat viability (%) (T lymphoma Jurkat cells; conc 0.0244141 uM): 92.4% and 98.8%
Jurkat viability (%) (T lymphoma Jurkat cells; conc 0.0488281 uM): 88.4% and 81.5%
Jurkat viability (%) (T lymphoma Jurkat cells; conc 0.0976562 uM): 82.2% and 81.2%
Jurkat viability (%) (T lymphoma Jurkat cells; conc 0.195312 uM): 57.1% and 58.0%
Jurkat viability (%) (T lymphoma Jurkat cells; conc 0.390625 uM): 50.5% and 48.6%
Jurkat viability (%) (T lymphoma Jurkat cells; conc 0.78125 uM): 40.3% and 41.8%
Jurkat viability (%) (T lymphoma Jurkat cells; conc 1.5625 uM): 36.4% and 39.4%
Jurkat viability (%) (T lymphoma Jurkat cells; conc 3.125 uM): 29.6% and 29.1%
Jurkat viability (%) (T lymphoma Jurkat cells; conc 6.25 uM): 28.9% and 29.5%
Jurkat viability (%) (T lymphoma Jurkat cells; conc 12.5 uM): 26.0% and 28.1%
Jurkat viability (%) (T lymphoma Jurkat cells; conc 25 uM): 26.9% and 28.7%
Jurkat viability (%) (T lymphoma Jurkat cells; conc 50 uM): 17.4% and 19.3%
viability at 72 h, 9.53674e-05 uM ([1]; conc 9.53674e-5 uM): 97.1%
viability at 72 h, 0.000190735 uM ([1]; conc 0.000190735 uM): 100%
viability at 72 h, 0.00038147 uM ([1]; conc 0.00038147 uM): 106%
viability at 72 h, 0.000762939 uM ([1]; conc 0.000762939 uM): 102%
viability at 72 h, 0.00152588 uM ([1]; conc 0.00152588 uM): 106%
viability at 72 h, 0.00305176 uM ([1]; conc 0.00305176 uM): 97.7%
viability at 72 h, 0.00610352 uM ([1]; conc 0.00610352 uM): 105%
viability at 72 h, 0.012207 uM ([1]; conc 0.012207 uM): 92.7%
viability at 72 h, 0.0244141 uM ([1]; conc 0.0244141 uM): 93.7%
viability at 72 h, 0.0488281 uM ([1]; conc 0.0488281 uM): 86%
viability at 72 h, 0.0976562 uM ([1]; conc 0.0976562 uM): 74.9%
viability at 72 h, 0.195312 uM ([1]; conc 0.195312 uM): 60.9%
viability at 72 h, 0.390625 uM ([1]; conc 0.390625 uM): 51.4%
viability at 72 h, 0.78125 uM ([1]; conc 0.78125 uM): 42.4%
viability at 72 h, 1.5625 uM ([1]; conc 1.5625 uM): 36.2%
viability at 72 h, 3.125 uM ([1]; conc 3.125 uM): 29.7%
viability at 72 h, 6.25 uM ([1]; conc 6.25 uM): 31.2%
viability at 72 h, 12.5 uM ([1]; conc 12.5 uM): 29%
viability at 72 h, 25 uM ([1]; conc 25 uM): 27.4%
viability at 72 h, 50 uM ([1]; conc 50 uM): 18.3%
SKOV3 viability (%) ([2]; conc 9.53674e-5 uM): 105.9% and 100.3%
SKOV3 viability (%) ([2]; conc 0.000190735 uM): 101.8% and 104.0%
SKOV3 viability (%) ([2]; conc 0.00038147 uM): 103.8%
SKOV3 viability (%) ([2]; conc 0.000762939 uM): 99.7% and 104.2%
SKOV3 viability (%) ([2]; conc 0.00152588 uM): 108.5% and 105.8%
SKOV3 viability (%) ([2]; conc 0.00305176 uM): 98.1%
SKOV3 viability (%) ([2]; conc 0.00610352 uM): 101.6% and 106.7%
SKOV3 viability (%) ([2]; conc 0.012207 uM): 93.5% and 95.1%
SKOV3 viability (%) ([2]; conc 0.0244141 uM): 95.8% and 102.2%
SKOV3 viability (%) ([2]; conc 0.0488281 uM): 93.6% and 92.4%
SKOV3 viability (%) ([2]; conc 0.0976562 uM): 93.2% and 87.5%
SKOV3 viability (%) ([2]; conc 0.195312 uM): 79.8% and 81.0%
SKOV3 viability (%) ([2]; conc 0.390625 uM): 82.0% and 78.5%
SKOV3 viability (%) ([2]; conc 0.78125 uM): 67.6% and 71.1%
SKOV3 viability (%) ([2]; conc 1.5625 uM): 76.5% and 72.9%
SKOV3 viability (%) ([2]; conc 3.125 uM): 73.0% and 75.2%
SKOV3 viability (%) ([2]; conc 6.25 uM): 70.8% and 73.4%
SKOV3 viability (%) ([2]; conc 12.5 uM): 62.7% and 63.5%
SKOV3 viability (%) ([2]; conc 25 uM): 72.9%
SKOV3 viability (%) ([2]; conc 50 uM): 57.2% and 56.0%
viability at 72 h, 9.53674e-05 uM ([3]; SKOV-3 cells (ovarian adenocarcinoma), conc 9.53674e-5 uM): 103%
viability at 72 h, 0.000190735 uM ([3]; SKOV-3 cells (ovarian adenocarcinoma), conc 0.000190735 uM): 105%
viability at 72 h, 0.00038147 uM ([3]; SKOV-3 cells (ovarian adenocarcinoma), conc 0.00038147 uM): 97.1%
viability at 72 h, 0.000762939 uM ([3]; SKOV-3 cells (ovarian adenocarcinoma), conc 0.000762939 uM): 101%
viability at 72 h, 0.00152588 uM ([3]; SKOV-3 cells (ovarian adenocarcinoma), conc 0.00152588 uM): 102%
viability at 72 h, 0.00305176 uM ([3]; SKOV-3 cells (ovarian adenocarcinoma), conc 0.00305176 uM): 97.4%
viability at 72 h, 0.00610352 uM ([3]; SKOV-3 cells (ovarian adenocarcinoma), conc 0.00610352 uM): 105%
viability at 72 h, 0.012207 uM ([3]; SKOV-3 cells (ovarian adenocarcinoma), conc 0.012207 uM): 99.1%
viability at 72 h, 0.0244141 uM ([3]; SKOV-3 cells (ovarian adenocarcinoma), conc 0.0244141 uM): 97.2%
viability at 72 h, 0.0488281 uM ([3]; SKOV-3 cells (ovarian adenocarcinoma), conc 0.0488281 uM): 90.5%
viability at 72 h, 0.0976562 uM ([3]; SKOV-3 cells (ovarian adenocarcinoma), conc 0.0976562 uM): 92.1%
viability at 72 h, 0.195312 uM ([3]; SKOV-3 cells (ovarian adenocarcinoma), conc 0.195312 uM): 75%
viability at 72 h, 0.390625 uM ([3]; SKOV-3 cells (ovarian adenocarcinoma), conc 0.390625 uM): 80.5%
viability at 72 h, 12.5 uM ([3]; SKOV-3 cells (ovarian adenocarcinoma), conc 12.5 uM): 60.9%
viability at 72 h, 25 uM ([3]; SKOV-3 cells (ovarian adenocarcinoma), conc 25 uM): 70.4%
viability at 72 h, 50 uM ([3]; SKOV-3 cells (ovarian adenocarcinoma), conc 50 uM): 52.8%
viability at 72 h, 0.78125 uM ([3]; SKOV-3 ovarian adenocarcinoma cells, conc 0.78125 uM): 70.1%
viability at 72 h, 1.5625 uM ([3]; SKOV-3 ovarian adenocarcinoma cells, conc 1.5625 uM): 73.8%
viability at 72 h, 3.125 uM ([3]; SKOV-3 ovarian adenocarcinoma cells, conc 3.125 uM): 65.5%
viability at 72 h, 6.25 uM ([3]; SKOV-3 ovarian adenocarcinoma cells, conc 6.25 uM): 70.2%
